Key:
Type in all cases: in vivo
[1] = tested on: house fly (Musca domestica); assay: Fecal bioassay: emergence of adult house flies from manure of horses given oral spinosad feed-through
Procedure: (§1) A study was conducted to evaluate the efficiency of oral spinosad feed-through for controlling development of immature stages of the house fly (Musca domestica) and stable fly (Stomoxys calcitrans) in the manure of treated horses. There were five treatment groups, having three horses each. Treatment groups 1-4 were administered the following pellet formulation: […]
(§2) Treatment groups 1-4 were provided the test substance top-dressed onto feed supplement and fed at a rate to deliver a dose, respectively, of approximately 0.6, 0.8, 1.0, and 1.2 mg spinosad/kg body weight/day, daily for the duration of the study. Treatment group 5 was the negative control group and was fed the above formulation without spinosad, and each horse in this treatment group received one ounce (28.3 g) of the negative control substance.
(§3) Fecal samples from the three horses in each treatment group were collected on study days—1, 3, 10, and 17, and bioassayed with eggs of house flies and stable flies, and the number of adult flies that emerged from the fecal sample bioassays were determined. The concentration of spinosyn A in the fecal samples was also determined.
Another study was carried out, similar to the above study, with a few changes. There were three spinosad administered groups, with the rates of spinosad being 0.4, 0.5, and 0.6 mg spinosad/kg of body weight. […]

[2] = tested on: stable fly (Stomoxys calcitrans); assay: Fecal bioassay: emergence of adult stable flies from manure of horses given oral spinosad feed-through
Procedure: as §1, §2, §3
(§4) Another study was carried out, similar to the above study, with a few changes. There were three spinosad administered groups, with the rates of spinosad being 0.4, 0.5, and 0.6 mg spinosad/kg of body weight. There was a positive control group, administered between 0.6 and 0.7 mg cyromazine/kg of body weight. There was also a negative control group.

[3] = Concentration of spinosyn A in fecal samples of treated horses
Procedure: as §2, §3, §4

[4] = Observed adverse effects in horses under feed-through administration
Procedure: as §1, §2, §4

[5] = tested on: horn flies (Haematobia irritans); assay: Orally administered spinosad to control horn flies on cattle; conditions: flies remaining after 24 hours exposure
Procedure: A study was conducted to evaluate the efficacy of orally administered spinosad to control horn flies (Haematobia irritans), an obligate ectoparasite of cattle. A liquid spinosad formulation was topically applied to a palatable feed ration and fed to cattle at doses of 0.03, 0.10, 0.30 and 3.0 mg/kg of body weight. The number of horn flies remaining after 24 hours exposure to the cattle in an enclosed room was determined on test days 2, 4, 9, 11, 16, 18, 23 and 25 and was compared to the number remaining for the control group. The percent reduction in horn flies was notable for the 0.30 and 3.0 mg/kg test groups.

| Molecule | effective in preventing emergence of adult house flies ([1]; first study, all 4 groups (0.6, 0.8, 1.0, 1.2 mg spinosad/kg body weight/day), all three post-administration collection days (3, 10, 17)) [%] | efficacy in preventing emergence of adult house flies ([1]; second study, all three spinosad groups (0.4, 0.5, 0.6 mg/kg), all three fecal sample collection dates) [%] | reduction in stable fly emergence ([2]; first study, 0.6 mg spinosad/kg of body weight group, study day 17 fecal sample collection) [%] | Reduction in emergence of stable fly adults ([2]; first study, horses, all 4 spinosad treatments (0.6-1.2 mg/kg/day) at all three post-administration collections, with one exception) [%] | reduction in stable fly emergence ([2]; second study, 0.4 mg spinosad/kg of body weight group, study day 10 fecal sample collection) [%] | Reduction of the emergence of stable flies ([2]; second study, horses, all three spinosad groups (0.4, 0.5, 0.6 mg/kg), with one exception) [%] | mean spinosyn A concentration in fecal samples ([3]; first study, 0.6 mg spinosad/kg of body weight group, all three animals) [ppm] | mean spinosyn A concentration in fecal samples ([3]; first study, 0.8 mg spinosad/kg of body weight group, all three animals) [ppm] | mean spinosyn A concentration in fecal samples ([3]; first study, 1.2 mg spinosad/kg of body weight group) [ppm] | concentration of spinosyn A in fecal samples (lowest single sample) ([3]; first study, one horse, 0.6 mg spinosad/kg group, study day 3) [ppm] | concentration of spinosyn A in fecal samples (highest single sample) ([3]; first study, one horse, 1.2 mg spinosad/kg group, study day 10) [ppm] | mean spinosyn A concentration in fecal samples ([3]; second study, 0.4 mg spinosad/kg group, all three animals, all three post-administration dates) [ppm] | mean spinosyn A concentration in fecal samples ([3]; second study, 0.5 mg spinosad/kg group, all three animals, all three post-administration dates) [ppm] | mean spinosyn A concentration in fecal samples ([3]; second study, 0.6 mg spinosad/kg group, all three animals, all three post-administration dates) [ppm] | adverse effects ([4]; first study, horses, 0.6-1.2 mg spinosad/kg body weight/day, daily for the study) | adverse effects ([4]; second study, horses, 0.4, 0.5, 0.6 mg spinosad/kg) | percent reduction in horn flies vs control group ([5]; oral 0.30 mg/kg in feed, from day 9 and on) | percent reduction in horn flies vs control group ([5]; oral 3.0 mg/kg in feed, all time points (days 2-25)) | Reduction of the emergence of stable flies ([2]; second study, horses, 0.6-0.7 mg cyromazine/kg) [%] |
| --- | --- | --- | --- | --- | --- | --- | --- | --- | --- | --- | --- | --- | --- | --- | --- | --- | --- | --- | --- |
| spinosad | 100 | 100 | 97.25 | 100 | 99.3 | 100 | 3.4 | 2.9 | 5.5 | 0.9 | 8.6 | 2.2 | 3.2 | 3.7 | no observed adverse effects | no observed adverse effects | at least 63.3% | at least 89.2% |  |
| Nc1nc(N)nc(NC2CC2)n1 [cyromazine] |  |  |  |  |  |  |  |  |  |  |  |  |  |  |  |  |  |  | 100 |
